Laboratory results published in patent US20240317735A1, “HYDROISOQUINOLINE OR HYDRONAPHTHYRIDINE COMPOUNDS FOR THE TREATMENT OF AUTOIMMUNE DISEASE” (Hoffmann-La Roche Inc., priority 2020, published 2024).

Target: T1, TLR9 (Homo sapiens, UniProt Q9NR96)
T1 sequence (Q9NR96 26-1032): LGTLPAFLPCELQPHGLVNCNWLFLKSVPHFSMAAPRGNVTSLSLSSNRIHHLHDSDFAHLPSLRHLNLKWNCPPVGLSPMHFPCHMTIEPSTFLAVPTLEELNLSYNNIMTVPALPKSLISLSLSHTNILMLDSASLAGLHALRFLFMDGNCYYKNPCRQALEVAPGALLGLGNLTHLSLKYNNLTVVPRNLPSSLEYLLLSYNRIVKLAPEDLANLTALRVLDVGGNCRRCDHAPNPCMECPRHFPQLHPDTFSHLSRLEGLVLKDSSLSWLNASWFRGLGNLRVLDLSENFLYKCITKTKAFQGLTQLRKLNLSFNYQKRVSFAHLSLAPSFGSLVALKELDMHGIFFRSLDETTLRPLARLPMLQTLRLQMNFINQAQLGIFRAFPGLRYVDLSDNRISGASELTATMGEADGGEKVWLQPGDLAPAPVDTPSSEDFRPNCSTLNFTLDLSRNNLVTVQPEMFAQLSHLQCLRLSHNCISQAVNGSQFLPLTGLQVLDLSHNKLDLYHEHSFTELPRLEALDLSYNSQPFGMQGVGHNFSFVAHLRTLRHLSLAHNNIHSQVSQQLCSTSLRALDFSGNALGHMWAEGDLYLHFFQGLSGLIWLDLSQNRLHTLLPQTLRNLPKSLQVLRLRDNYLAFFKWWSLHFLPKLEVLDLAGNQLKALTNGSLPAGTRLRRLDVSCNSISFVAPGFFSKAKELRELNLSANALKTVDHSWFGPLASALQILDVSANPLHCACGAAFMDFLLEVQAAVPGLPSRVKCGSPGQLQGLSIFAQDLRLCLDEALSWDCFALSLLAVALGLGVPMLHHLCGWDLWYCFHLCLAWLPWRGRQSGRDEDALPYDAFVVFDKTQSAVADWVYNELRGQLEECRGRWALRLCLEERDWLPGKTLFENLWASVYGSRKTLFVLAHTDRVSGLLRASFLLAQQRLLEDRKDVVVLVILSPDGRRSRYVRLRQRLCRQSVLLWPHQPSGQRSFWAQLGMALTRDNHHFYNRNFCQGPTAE
Assay: HEK293-Blue-hTLR-9 cells assay (SEAP reporter, ODN2006 stimulation)
Type: cell-based
Parameters: host or cells: HEK293 (HEK-Blue hTLR9)
Conditions: HEK293-Blue-hTLR9 cells, ODN2006, 20 hrs; read-out: HEK/hTLR9 IC50
Summary of the method: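 Antagonist format: cells in DMEM/10% FBS exposed to serially diluted compound (1% DMSO) plus ODN2006 stimulation for 20 h at 37°C. Supernatant SEAP measured with QUANTI-Blue substrate, 2 h at 37°C, absorbance 620–655 nm.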

SMILES	IC50 [nM]
Cc1cc(N2Cc3ccc(N4CCC(C)(N)CC4)nc3[C@@H](C)C2)c2cnn(C)c2n1 [Example 59, 4-methyl-1-[(8S)-6-(1,6-dimethylpyrazolo[3,4-b]pyridin-4-yl)-8-methyl-7,8-dihydro-5H-1,6-naphthyridin-2-yl]piperidin-4-amine]	121
CO[C@@H]1CN(c2ccc3c(c2)[C@@H](C)CN(c2cc(C)nc4c2cnn4C)C3)C[C@H]1N [Example 23, (3R,4R)-4-methoxy-1-[(4R)-2-(1,6-dimethylpyrazolo[3,4-b]pyridin-4-yl)-4-methyl-3,4-dihydro-1H-isoquinolin-6-yl]pyrrolidin-3-amine]	115
Cc1cc(N2Cc3ccc(N4CCOC5(CNC5)C4)nc3[C@@H](C)C2)c2cnn(C)c2n1 [Example 70, 8-[(8S)-6-(1,6-dimethylpyrazolo[3,4-b]pyridin-4-yl)-8-methyl-7,8-dihydro-5H-1,6-naphthyridin-2-yl]-5-oxa-2,8-diazaspiro[3.5]nonane]	300
CO[C@@H]1CN(c2cc3c(cn2)CN(c2cc(C)nc4c2cnn4C)C[C@@H]3C)C[C@H]1N [Example 78, (3R,4R)-4-methoxy-1-[(5R)-7-(1,6-dimethylpyrazolo[3,4-b]pyridin-4-yl)-5-methyl-6,8-dihydro-5H-2,7-naphthyridin-3-yl]pyrrolidin-3-amine]	335
Cn1ncc2c(N3CCc4cc(N5CCNCC5)ccc4C3)ccnc21 [Example 3, 2-(1-methylpyrazolo[3,4-b]pyridin-4-yl)-6-piperazin-1-yl-3,4-dihydro-1H-isoquinoline]	185

Results, then the compound that gave them:

IC50 [nM]	SMILES
88	Cc1cc(N2Cc3ccc(OC[C@H]4CNCCN4)cc3[C@@H](C)C2)c2cnn(C)c2n1 [Example 30, (4R)-2-(1,6-dimethylpyrazolo[3,4-b]pyridin-4-yl)-4-methyl-6-[[(2R)-piperazin-2-yl]methoxy]-3,4-dihydro-1H-isoquinoline]
376	C[C@H]1CN(c2ccnc3c2cnn3C)Cc2ccc(N3CCN[C@@H](CO)C3)cc21 [Example 50, [(2R)-4-[(4R)-4-methyl-2-(1-methylpyrazolo[3,4-b]pyridin-4-yl)-3,4-dihydro-1H-isoquinolin-6-yl]piperazin-2-yl]methanol]
86	Cc1cc(N2Cc3ccc(N4CCNCC4)cc3[C@@H](C)C2)c2cnn(C)c2n1 [Example 2, (4R)-2-(1,6-dimethylpyrazolo[3,4-b]pyridin-4-yl)-4-methyl-6-piperazin-1-yl-3,4-dihydro-1H-isoquinoline]
365	C[C@H]1CN(c2ccnc3c2cnn3C)Cc2ccc(N3CCN[C@H](CO)C3)cc21 [Example 51, [(2S)-4-[(4R)-4-methyl-2-(1-methylpyrazolo[3,4-b]pyridin-4-yl)-3,4-dihydro-1H-isoquinolin-6-yl]piperazin-2-yl]methanol]
117	C[C@H]1CN(c2ccnc3c2cnn3C)Cc2ccc(N3CC4(CCNC4)CC3=O)cc21 (stereo partly drawn) [Example 52, 2-[(4R)-4-methyl-2-(1-methylpyrazolo[3,4-b]pyridin-4-yl)-3,4-dihydro-1H-isoquinolin-6-yl]-2,7-diazaspiro[4.4]nonan-3-one]
106	C[C@H]1CN(c2ccnc3c2cnn3C)Cc2ccc(N3CCC(N4CC[C@@H](N)[C@H](O)C4)CC3)cc21 [Example 29, trans-4-amino-1-[1-[(4R)-4-methyl-2-(1-methylpyrazolo[3,4-b]pyridin-4-yl)-3,4-dihydro-1H-isoquinolin-6-yl]-4-piperidyl]piperidin-3-ol]
147	C[C@H]1CN(c2ccnc3c2cnn3C)Cc2ccc(N3CCN(CCN(C)C)CC3)cc21 [Example 38, N,N-dimethyl-2-[4-[(4R)-4-methyl-2-(1-methylpyrazolo[3,4-b]pyridin-4-yl)-3,4-dihydro-1H-isoquinolin-6-yl]piperazin-1-yl]ethanamine]
298	C[C@H]1CN(c2ccnc3c2cnn3C)Cc2ccc(N3CCN(C(=O)C4CNCCO4)CC3)cc21 (stereo partly drawn) [Example 12, morpholin-2-yl-[4-[(4R)-4-methyl-2-(1-methylpyrazolo[3,4-b]pyridin-4-yl)-3,4-dihydro-1H-isoquinolin-6-yl]piperazin-1-yl]methanone]
